Series [1] concerns normal human primary B cells. The experiment in a line: Annexin V apoptosis of normal B cells. As to conditions: 1μM, vs DMSO. In kind it is cell-based.
A further series deals with MAPK. The experiment in a line: Active-site-dependent competition kinase binding assay (KINOMEscan). Here is the method: (§1) Kinase assay was performed as previously described. The binding activities of GZD824 were analyzed by KINOME scan system conducted by Ambit Bioscience (CA, USA). Briefly, kinases were tagged with DNA. The ligands were biotinylated and immobilized to streptavidin coated beads. The binding reactions were assembled by incubating DNA-tagged kinases, immobilized ligands, and test compounds in binding reactions (20% SeaBlock, 0.17×PBS, 0.05% tween-20, 6 mM DTT) for 1.0 h at room temperature. The affinity beads were washed with washing buffer (1×PBS, 0.05% Tween-20) first and then elution buffer (1×PBS, 0.05% Tween 20, 0.5μM nonbiotinylated affinity ligands). The kinase concentration in the eluate was determined by quantitative PCR of the DNA tagged to the kinase. The ability of the test compound to bind to the kinase was evaluated with percent control (%) as (test compound signal −positive control signal)/negative control signal−positive control signal) ×100%. Negative control is DMSO control (100% ctrl) and positive control is control compound (0% ctrl).

A further series has as its target T1, SRC (Homo sapiens, UniProt P12931).
T1 construct: purchased Ambit Bioscience (CA, USA), KINOMEscan service
The description is as above. Here is the method: as §1

A further series concerns JAK. The series is described as above. Here is the method: as §1
Another series deals with T2, ABL (Homo sapiens, UniProt P00519).
T2 construct: purchased Ambit Bioscience (CA, USA), KINOMEscan service
The series is described as above. Here is the method:
as §1

In a further series the test system is SUPB15 cells. The experiment in a line: Annexin V apoptosis flow cytometry. To be noted: 24 h. In kind it is cell-based, human. Here is the method:
Human pre-B ALL cell lines NALM6 and SUPB15 were purchased from American Type Culture Collection (ATCC, Maryland, USA). All pre-B ALL cell lines were maintained in cell culture media and conditions as recommended by the ATCC. Cells were treated with GZD824 for 24 hours. GZD824 (3μM, 1μM, or 0.5μM) was used in the experiments unless otherwise noted. NALM6 and SUPB15 cells were maintained in RPMI-1640 medium (Gibco, New York, NY, USA) with 10% fetal bovine serum (Biochrom, Melbourne, Australia). For identification of apoptotic cells among NALM6, SUPB15, and primary pre-B ALL cells, the GZD824-treated cells were stained with Annexin V Apoptosis Detection Kit (88-8007, BD ebioscience, CA, USA) according to the manufacturer's instructions (Affymetrix ebioscience, CA, USA) and then subjected to flow cytometric analysis by the Accuri™ C6 (BD Biosciences, CA, USA). For the in vitro drug sensitivity test in Figure 6A, the human CD45+ cells in spleen and bone marrow from sick mice account for over 95% of the total. We enriched human CD45+ cells in PB by MACS according to the manufacturer's instruction. After the enrichment, the purity of human CD45+ cell in PB reached 95%. […] All data were analyzed with FlowJo software (Tree Star, Inc., Ashland, USA).

The subject of the next series is phospho-STAT3. The experiment in a line: Western blot of NALM6 cells. As to conditions: NALM6, 1μM or 3μM, 24 hours. In kind it is cell-based, human. Here is the method: (§2) Figure 5 GZD824 inhibits the SRC kinase in pre-B ALL cells A-C. Western blot analysis of […]-treated NALM6 cells. Cells were treated with DMSO, GZD824 (1μM), or GZD824 (3μM) for 24 hours. Lysates were analyzed with antibodies to (A) phospho-SRC and SRC; (B) phospho-STAT3 and STAT3; and (C) phospho-Rb, Rb, and C-Myc. D. qRT-PCR products of BCL-XL, CCND1, CDK4, and CCK[…] mRNA were normalized to GAPDH and presented as fold increase or decrease compared to control, 24 hours after treatment with 3 μM GZD824. E. NALM6 cells were treated with GZD824, SRC inhibitor (KX2-391), STAT3 inhibitor (HO-3867), or DMSO for 24 hours. Statistical analysis of Annexin V-positive cells in 3μM of drug treated NALM6 cells. All data from independent experiments are presented as mean ± SEM. Significance values: ^*P<0.05; ^**P<0.01; ^***P<0.001. For Western blot analysis, 30 μg of total protein extracts prepared from NALM6 or primary pre-B ALL cells from SP of PDX mice were separated on SDS-PAGE and transferred to a PVDF membrane (Bio-Rad, Hercules, CA, USA). The following commercially available antibodies and dilutions were used for Western blotting: human anti-STAT3 (ab119352, Abcam, UK), human anti-phospho-STAT3 (Y705) (ab76315, Abcam, UK), human anti-SRC (ab32102, Abcam, UK), human anti-phospho-SRC ([…]) (ab185617, Abcam, UK), human anti-RB (9313, Cell Signaling Technology, MA, USA), human anti-phospho-RB (Ser807/811) (8516, Cell Signaling Technology, MA, USA), human anti-C-myc (13987, Cell Signaling Technology, MA, USA), anti-AKT (pan) ([…], Cell Signaling Technology, MA, USA), anti-phospho-AKT (Ser473) ([…], Cell Signaling Technology, MA, USA), anti-IRS-1 ([…], Cell Signaling Technology, MA, USA), and human anti-β-actin (4970, Cell Signaling Technology, MA, USA). Western blot analysis was performed with cell lines or primary pre-B ALL cells from SP following GZD824 treatment, and signal intensities were normalized to β-actin signals.
A general note: In western blotting, separated proteins are transferred to a membrane and probed.

Another series concerns phospho-Rb. The experiment in a line: Western blot of NALM6 cells. Type of series: cell-based, human. As to conditions: NALM6, 1μM or 3μM, 24 hours. Here is the method:
as §2

A further series relates to phospho-SRC. The experiment in a line: Western blot of NALM6 cells. In kind it is cell-based, human. To be noted: NALM6, 1μM or 3μM, 24 hours. Here is the method: as §2
The test system of a further series is C-Myc. The experiment in a line: Western blot of NALM6 cells. In kind it is cell-based, human. To be noted: NALM6, 1μM or 3μM, 24 hours. Here is the method:
as §2

T1 sequence (P12931 whole entry): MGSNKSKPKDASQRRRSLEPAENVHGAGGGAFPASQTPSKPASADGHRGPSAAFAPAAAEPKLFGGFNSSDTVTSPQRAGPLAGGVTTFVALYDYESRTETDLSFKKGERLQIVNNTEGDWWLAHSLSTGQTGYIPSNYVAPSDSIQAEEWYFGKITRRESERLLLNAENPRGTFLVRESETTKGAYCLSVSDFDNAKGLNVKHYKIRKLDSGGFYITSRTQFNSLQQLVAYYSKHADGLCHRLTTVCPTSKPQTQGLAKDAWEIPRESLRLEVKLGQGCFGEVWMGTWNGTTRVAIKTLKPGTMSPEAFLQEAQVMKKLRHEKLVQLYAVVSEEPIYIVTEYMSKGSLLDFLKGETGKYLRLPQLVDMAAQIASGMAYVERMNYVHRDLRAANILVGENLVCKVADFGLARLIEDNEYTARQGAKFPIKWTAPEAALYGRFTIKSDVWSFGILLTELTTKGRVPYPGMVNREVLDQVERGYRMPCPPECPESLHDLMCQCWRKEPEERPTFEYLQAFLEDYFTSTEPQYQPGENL
T2 sequence (P00519 whole entry): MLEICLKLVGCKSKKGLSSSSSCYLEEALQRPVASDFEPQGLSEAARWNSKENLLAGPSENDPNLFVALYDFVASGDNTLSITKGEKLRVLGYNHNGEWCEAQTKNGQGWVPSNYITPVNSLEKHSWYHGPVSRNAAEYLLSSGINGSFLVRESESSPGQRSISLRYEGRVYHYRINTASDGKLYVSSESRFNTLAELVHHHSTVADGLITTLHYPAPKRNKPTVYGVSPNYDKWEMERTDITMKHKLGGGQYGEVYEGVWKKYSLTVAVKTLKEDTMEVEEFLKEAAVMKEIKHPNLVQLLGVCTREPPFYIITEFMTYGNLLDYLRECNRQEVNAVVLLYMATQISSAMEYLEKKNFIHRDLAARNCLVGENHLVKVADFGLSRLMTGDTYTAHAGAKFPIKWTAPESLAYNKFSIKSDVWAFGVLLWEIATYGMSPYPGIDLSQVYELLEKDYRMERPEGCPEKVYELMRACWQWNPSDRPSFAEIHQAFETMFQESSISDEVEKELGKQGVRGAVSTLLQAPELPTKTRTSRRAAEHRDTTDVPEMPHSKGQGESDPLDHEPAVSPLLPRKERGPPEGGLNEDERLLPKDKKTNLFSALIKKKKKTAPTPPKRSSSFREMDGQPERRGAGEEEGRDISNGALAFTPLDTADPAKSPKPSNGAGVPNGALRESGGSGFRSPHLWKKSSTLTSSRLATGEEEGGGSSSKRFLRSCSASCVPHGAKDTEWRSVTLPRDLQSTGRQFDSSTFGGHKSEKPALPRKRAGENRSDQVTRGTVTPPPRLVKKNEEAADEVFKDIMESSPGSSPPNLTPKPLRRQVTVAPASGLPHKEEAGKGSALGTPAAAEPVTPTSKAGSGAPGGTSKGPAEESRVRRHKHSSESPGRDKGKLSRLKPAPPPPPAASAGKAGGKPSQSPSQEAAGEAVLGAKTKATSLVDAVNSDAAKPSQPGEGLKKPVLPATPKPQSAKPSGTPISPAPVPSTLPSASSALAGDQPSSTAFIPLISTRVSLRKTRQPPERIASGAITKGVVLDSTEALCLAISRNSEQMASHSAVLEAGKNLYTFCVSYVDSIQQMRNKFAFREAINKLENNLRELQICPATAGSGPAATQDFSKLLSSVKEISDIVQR

As for `Cc1ccc(C(=O)Nc2ccc(CN3CCN(C)CC3)c(C(F)(F)F)c2)cc1C#Cc1cnc2[nH]ncc2c1` [GZD824], in series [1], the “apoptosis in normal human primary B cells” value is given as “did not induce apoptosis”. The “%Ctrl@10nM” value with MAPK (MAPK, 10 nM, mean of two independent experiments) is recorded as 81%; in the series on JAK (JAK, 10 nM, mean of two independent experiments), 100%. For the same molecule, the “%Ctrl@100nM” value worked out at 81% in the series on MAPK (MAPK, 100 nM, mean of two independent experiments) and 100% in the series with JAK (JAK, 100 nM, mean of two independent experiments). Also, the “binding to MAPK (in words)” value with MAPK (kinase assay) is “does not bind”. Further, the remaining binding at 0.01 µM at SRC (SRC, 10 nM, mean of two independent experiments, read-out: %Ctrl@10nM) came out at 26%; at ABL (read-out: %Ctrl@10nM), 2.8%. Besides, the remaining binding at 0.1 µM on SRC (SRC, 100 nM, mean of two independent experiments, read-out: %Ctrl@100nM) was determined as 0.75%; on ABL (read-out: %Ctrl@100nM) it was 0.15%. In addition, the “binding to the SRC kinase (in words)” value on SRC (kinase assay) is “high affinity”. The “binding to JAK (in words)” value with JAK (kinase assay) is listed as “does not bind”. In the series with SUPB15 cells (SUPB15, 1μM), the apoptotic rate entry is “moderate”. Further, the “cells undergoing apoptosis (AnnexinV+)” value in the series with SUPB15 cells (SUPB15, 3μM) is reported as 48.3%. Besides, the “phosphorylated STAT3” value in the series on phospho-STAT3 is listed as “reduced”. Further, the Rb phosphorylation result in the series on phospho-Rb is given as “suppressed”. Also, the “phosphorylated SRC” value with phospho-SRC is reported as “reduced”. In addition, the c-Myc oncogene expression result in the series on C-Myc was “downregulated”.

(Values after PMC5675611, “GZD824 suppresses the growth of human B cell precursor acute lymphoblastic leukemia cells by inhibiting the SRC kinase and PI3K/AKT pathways” (Oncotarget, 2016).)
